For experiment [1], the target named is DGKζ (Homo sapiens (Human), UniProt Q13574). The experiment can be described thus: Biochemical DGK IC50 assay (ADP-Glo, lipid micelle substrate), DGKζ. The conditions noted are these: full length DGKζ 0.5 nM, ATP 140 μM, DAG 80 μM. As for the experimental part:
(§1) Enzymatic reactions of DGKζ, DGKα and DGKδ were performed using ADP-Glo assay with lipid micelle substrate. […] Full length DGKα (D21-10BG, SignalChem) and full length DGKδ (D23-10G, SignalChem) were purchased. Lipid micelle was prepared by dissolving DAG (Sigma, 317505-10MG) and PS (Sigma, P7769-100MG) with chloroform which was furtherly removed by rotary evaporation. The resulted product was resuspended in buffer containing 25 mM HEPES pH 7.0, 0.5 mM EDTA and 160 mM Octyl β-D glucopyranoside by vigorous mixing and ultrasonic (IID, Scientz).
(§2) The inhibition activities testing for the compound disclosed herein were carried out at room temperature in assay buffer containing 50 mM HEPES, 10 mM MgCl2, 0.01% BSA, 0.1 mM Na3VO4, 0.005% Tween-20 and 0.01 mM CaCl2. Compounds in DMSO were dispensed into wells of a black 384 well plate (Corning 4514) using D300e digital dispenser (Tecan). […] 3 μL 2× enzyme solution was added to wells. […] After 1 hour reaction, 5 μL ADP-Glo reagent (Promga V9101) was added and incubated for 40 minutes. 10 μL Kinase Detection reagent was added and incubated for 30 minutes. Luminescence was measured on a microplate reader (PHERAstar FSX, BMG labtech). The IC50s are calculated based on inhibition of enzyme activity in the presence of increasing concentrations of compounds.
Human His-TEV-DGK-zeta-pFastBac1 and human baculovirus samples was generated using the Bac-to-Bac baculovirus expression system (Invitrogen) according to the manufacturer's protocol. The DNA used for expression of DGK-zeta, have SEQ ID Nos: 1. Baculovirus amplification was achieved using infected SF9 cells at 1:2000 virus/cells ratios, and grown for 96 hours at 27° C. post-transfected.
Full length human DGKζ produced as described above, was purified from Sf9 baculovirus-infected insect cell paste. The cells were lysed using sonication method, and the lysates were clarified by centrifugation.

In experiment [2] the target is DGKα (Homo sapiens (Human), UniProt P23743). Nature of the experiment: Biochemical DGK IC50 assay (ADP-Glo, lipid micelle substrate), DGKα. Further: full length DGKα 7.5 nM. The conditions noted are these: full length DGKα […], ATP 140 μM, DAG 80 μM. As for the experimental part:
as §1, §2
Background: In ADP-Glo the light output rises with the ADP produced.

Broadly, the IC50 is the midpoint of a concentration-inhibition curve. A higher IC50 goes with weaker potency.

Chain of DGKα (P23743 whole entry): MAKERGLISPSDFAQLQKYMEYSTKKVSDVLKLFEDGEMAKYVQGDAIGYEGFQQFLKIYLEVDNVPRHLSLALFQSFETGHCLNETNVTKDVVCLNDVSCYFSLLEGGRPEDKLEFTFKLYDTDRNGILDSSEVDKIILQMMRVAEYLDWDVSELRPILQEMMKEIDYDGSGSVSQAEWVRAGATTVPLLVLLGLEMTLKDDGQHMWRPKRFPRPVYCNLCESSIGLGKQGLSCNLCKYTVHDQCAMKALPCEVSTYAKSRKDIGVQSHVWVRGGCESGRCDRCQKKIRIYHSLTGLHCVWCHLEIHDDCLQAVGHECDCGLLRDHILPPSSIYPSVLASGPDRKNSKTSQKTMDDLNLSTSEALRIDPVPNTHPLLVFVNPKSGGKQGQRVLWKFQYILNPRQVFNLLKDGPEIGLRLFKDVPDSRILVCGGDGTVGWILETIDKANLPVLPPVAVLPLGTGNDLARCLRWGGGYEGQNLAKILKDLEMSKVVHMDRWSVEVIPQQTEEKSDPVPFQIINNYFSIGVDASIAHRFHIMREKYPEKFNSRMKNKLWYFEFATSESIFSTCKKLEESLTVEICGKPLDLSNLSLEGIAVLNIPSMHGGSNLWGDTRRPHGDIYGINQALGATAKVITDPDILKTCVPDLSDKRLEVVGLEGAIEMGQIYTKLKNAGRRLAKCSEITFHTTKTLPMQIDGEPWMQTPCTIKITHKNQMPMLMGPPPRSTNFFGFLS
Chain of DGKζ (Q13574 other isoform, or with tags, fused parts or gaps): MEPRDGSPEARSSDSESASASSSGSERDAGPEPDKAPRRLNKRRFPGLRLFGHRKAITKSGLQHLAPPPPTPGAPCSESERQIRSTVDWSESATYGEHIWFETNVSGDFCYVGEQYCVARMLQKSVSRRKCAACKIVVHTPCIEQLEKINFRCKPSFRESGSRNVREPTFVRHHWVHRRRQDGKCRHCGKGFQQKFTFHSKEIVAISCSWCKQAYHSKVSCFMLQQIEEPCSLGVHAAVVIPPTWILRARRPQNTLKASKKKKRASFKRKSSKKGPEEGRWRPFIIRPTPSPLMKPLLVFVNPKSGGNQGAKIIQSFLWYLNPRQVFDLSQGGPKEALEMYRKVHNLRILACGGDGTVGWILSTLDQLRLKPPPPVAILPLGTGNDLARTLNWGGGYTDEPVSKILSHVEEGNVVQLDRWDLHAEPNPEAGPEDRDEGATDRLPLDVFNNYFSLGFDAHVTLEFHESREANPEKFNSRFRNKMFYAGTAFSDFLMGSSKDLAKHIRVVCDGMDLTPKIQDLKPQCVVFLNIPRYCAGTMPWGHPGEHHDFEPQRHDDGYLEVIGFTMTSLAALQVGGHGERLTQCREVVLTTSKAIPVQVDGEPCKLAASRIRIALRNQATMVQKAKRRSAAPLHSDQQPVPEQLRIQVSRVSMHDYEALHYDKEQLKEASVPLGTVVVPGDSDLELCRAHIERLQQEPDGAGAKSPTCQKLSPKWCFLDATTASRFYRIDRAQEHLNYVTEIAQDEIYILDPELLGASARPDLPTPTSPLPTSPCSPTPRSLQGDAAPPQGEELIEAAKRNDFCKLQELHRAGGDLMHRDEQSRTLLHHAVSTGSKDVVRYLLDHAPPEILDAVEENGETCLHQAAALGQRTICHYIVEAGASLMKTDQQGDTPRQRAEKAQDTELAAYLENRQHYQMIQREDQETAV

In the case of `CC[C@H]1CN(C(C)c2ccn3nc(C4CC4)cc3n2)[C@H](CC)CN1c1nc(=O)n(C)c2cc(CC#N)nn12` (single isomer, unassigned) [Compound A54a], the 50% inhibitory concentration (IC50) came out at 4900 nM in experiment [1] and 485 nM in experiment [2].

`CC[C@H]1CN(C(C)c2ccn3nc(C4CC4)cc3n2)[C@H](CC)CN1c1nc(=O)n(C)c2cc(CC#N)nn12` (single isomer, unassigned) [Compound A54b]: the figures for the half-maximal inhibitory concentration (IC50) in experiment [1] and in experiment [2] were 19 nM and 69 nM, respectively.

Regarding `CC(c1ccc2nccnc2c1)N1C[C@H](C)N(c2cc(=O)n(C)c3cc(C#N)nn23)C[C@H]1C` (stereo partly drawn) [Compound A1, 7-((2S,5R)-2,5-dimethyl-4-(1-(quinoxalin-6-yl)ethyl)piperazin-1-yl)-4-methyl-5-oxo-4,5-dihydropyrazolo[1,5-a]pyrimidine-2-carbonitrile], the half-maximal inhibitory concentration (IC50) came out at 1000 nM in experiment [1] and 810 nM in experiment [2].

In the case of `Cc1cnc2ccc(C(C)N3C[C@H](C)N(c4cc(=O)[nH]c5cc(CC#N)nn45)C[C@H]3C)cc2n1` (stereo partly drawn) [Compound A5, 2-(7-((2S,5R)-2,5-dimethyl-4-(1-(3-methylquinoxalin-6-yl)ethyl)piperazin-1-yl)-5-oxo-4,5-dihydropyrazolo[1,5-a]pyrimidin-2-yl)acetonitrile], the results for the IC50 in experiment [1] and in experiment [2] were 100 nM and 116000 nM, respectively.

As for `CC(c1ccc2ncc(C(F)F)nc2c1)N1C[C@H](C)N(c2cc(=O)n(C)c3cc(CC#N)nn23)C[C@H]1C` (stereo partly drawn) [Compound A6, 2-(7-((2S,5R)-4-(1-(3-(difluoromethyl)quinoxalin-6-yl)ethyl)-2,5-dimethylpiperazin-1-yl)-4-methyl-5-oxo-4,5-dihydropyrazolo[1,5-a]pyrimidin-2-yl)acetonitrile], the IC50 was found to be 58 nM in experiment [1] and 4640 nM in experiment [2].

On to `COc1cnc2ccc(C(C)N3C[C@H](C)N(c4cc(=O)n(C)c5cc(CC#N)nn45)C[C@H]3C)cc2n1` (stereo partly drawn) [Compound A7, 2-(7-((2S,5R)-4-(1-(3-methoxyquinoxalin-6-yl)ethyl)-2,5-dimethylpiperazin-1-yl)-4-methyl-5-oxo-4,5-dihydropyrazolo[1,5-a]pyrimidin-2-yl)acetonitrile], for which the IC50 was found to be 23 nM in experiment [1] and 16900 nM in experiment [2].

For the compound `CC(c1ccc2ncc(Cl)nc2c1)N1C[C@H](C)N(c2cc(=O)n(C)c3cc(CC#N)nn23)C[C@H]1C` (stereo partly drawn) [Compound A8, 2-(7-((2S,5R)-4-(1-(3-chloroquinoxalin-6-yl)ethyl)-2,5-dimethylpiperazin-1-yl)-4-methyl-5-oxo-4,5-dihydropyrazolo[1,5-a]pyrimidin-2-yl)acetonitrile], the half-maximal inhibitory concentration (IC50) was 42 nM in experiment [1] and 13300 nM in experiment [2].

With `CC(c1ccc2c(c1)OC(C)(C)CO2)N1C[C@H](C)N(c2c(C#N)c(=O)n(C)c3cc(CC#N)nn23)C[C@H]1C` (stereo partly drawn) [Compound A12, 2-(cyanomethyl)-7-((2S,5R)-4-(1-(3,3-dimethyl-2,3-dihydrobenzo[b][1,4]dioxin-6-yl)ethyl)-2,5-dimethylpiperazin-1-yl)-4-methyl-5-oxo-4,5-dihydropyrazolo[1,5-a]pyrimidine-6-carbonitrile], the half-maximal inhibitory concentration (IC50) in experiment [1] was found to be 29 nM; in experiment [2], 6520 nM.

Turning to `CC(c1ccc2c(c1)OCCO2)N1C[C@H](C)N(c2cc(=O)n(C)c3cc(CC#N)nn23)C[C@H]1C` (stereo partly drawn) [Compound A13, 2-(7-((2S,5R)-4-(1-(2,3-dihydrobenzo[b][1,4]dioxin-6-yl)ethyl)-2,5-dimethylpiperazin-1-yl)-4-methyl-5-oxo-4,5-dihydropyrazolo[1,5-a]pyrimidin-2-yl)acetonitrile], the IC50 in experiment [1] stood at 53 nM; in experiment [2], 10200 nM.

Turning to `CC[C@H]1CN(C(C)c2ccc(F)cc2OC)[C@H](CC)CN1c1cc(=O)n(C)c2cc(CC#N)nn12` (stereo partly drawn) [Compound A16, 2-(7-((2S,5R)-2,5-diethyl-4-(1-(4-fluoro-2-methoxyphenyl)ethyl)piperazin-1-yl)-4-methyl-5-oxo-4,5-dihydropyrazolo[1,5-a]pyrimidin-2-yl)acetonitrile], the IC50 in experiment [1] amounted to 100 nM; in experiment [2] it was 27800 nM.

Turning to `CC[C@H]1CN(C(C)c2ccc(F)cc2OC(F)F)[C@H](CC)CN1c1cc(=O)n(C)c2cc(CC#N)nn12` (stereo partly drawn) [Compound A17, 2-(7-((2S,5R)-4-(1-(2-(difluoromethoxy)-4-fluorophenyl)ethyl)-2,5-diethylpiperazin-1-yl)-4-methyl-5-oxo-4,5-dihydropyrazolo[1,5-a]pyrimidin-2-yl)acetonitrile], the values for the half-maximal inhibitory concentration (IC50) in experiment [1] and in experiment [2] were 136 nM and 56700 nM, respectively.

`CC[C@H]1CN(C(C)c2ccc(F)cc2C(F)F)[C@H](CC)CN1c1cc(=O)n(C)c2cc(CC#N)nn12` (stereo partly drawn) [Compound A18, 2-(7-((2S,5R)-4-(1-(2-(difluoromethyl)-4-fluorophenyl)ethyl)-2,5-diethylpiperazin-1-yl)-4-methyl-5-oxo-4,5-dihydropyrazolo[1,5-a]pyrimidin-2-yl)acetonitrile]: the results for the IC50 in experiment [1] and in experiment [2] were 28 nM and 15700 nM, respectively.

Take `CC[C@H]1CN(C(C)c2ccncc2)[C@H](CC)CN1c1cc(=O)n(C)n2cc(CC#N)nc12` (stereo partly drawn) [Compound A19, 2-(8-((2S,5R)-2,5-diethyl-4-(1-(pyridin-4-yl)ethyl)piperazin-1-yl)-5-methy-6-oxo-5,6-dihydroimidazo[1,2-b]pyridazin-2-yl)acetonitrile]: the concentration for half-maximal inhibition (IC50) is 7900 nM in experiment [1] and 161 nM in experiment [2].

On to `CC[C@H]1CN(C(C)c2ccc(C3CC3)cc2F)[C@H](CC)CN1c1cc(=O)n(C)c2cc(CC#N)nn12` (stereo partly drawn) [Compound A21, 2-(7-((2S,5R)-4-(1-(4-cyclopropyl-2-fluorophenyl)ethyl)-2,5-diethylpiperazin-1-yl)-4-methyl-5-oxo-4,5-dihydropyrazolo[1,5-a]pyrimidin-2-yl)acetonitrile], for which the IC50 came out at 717 nM in experiment [1] and 2940 nM in experiment [2].

Take `CC[C@H]1CN(C(C)c2ccc(C3CC3)nc2)[C@H](CC)CN1c1cc(=O)n(C)c2cc(CC#N)nn12` (stereo partly drawn) [Compound A23, 2-(7-((2S,5R)-4(1-(6-cyclopropylpyridin-3-yl)ethyl)-2,5-diethylpiperazin-1-yl)-4-methyl-5-oxo-4,5-dihydropyrazolo[1,5-a]pyrimidin-2-yl)acetonitrile]: the 50% inhibitory concentration (IC50) in experiment [1] stood at 105 nM; in experiment [2] it was 913 nM.

As for `CC[C@H]1CN(C(C)c2ccc(OC(C)C)cn2)[C@H](CC)CN1c1cc(=O)n(C)c2cc(CC#N)nn12` (stereo partly drawn) [Compound A25, 2-(7-((2S,5R)-2,5-diethyl-4-(1-(5-isopropoxypyridin-2-yl)ethyl)piperazin-1-yl)-4-methyl-5-oxo-4,5-dihydropyrazolo[1,5-a]pyrimidin-2-yl)acetonitrile], the IC50 in experiment [1] came out at 175 nM; in experiment [2] it was 148 nM.

Take `CC[C@H]1CN(C(C)c2ccc(C3CC3)nc2F)[C@H](CC)CN1c1cc(=O)n(C)c2cc(CC#N)nn12` (stereo partly drawn) [Compound A26, 2-(7-((2S,5R)-4-(1-(6-cyclopropyl-2-fluoropyridin-3-yl)ethyl)-2,5-diethylpiperazin-1-yl)-4-methyl-5-oxo-4,5-dihydropyrazolo[1,5-a]pyrimidin-2-yl)acetonitrile]: the concentration for half-maximal inhibition (IC50) is 61 nM in experiment [1] and 1200 nM in experiment [2].

Turning to `CC[C@H]1CN(C(C)c2ccc3nc(C)sc3c2)[C@H](CC)CN1c1cc(=O)n(C)c2cc(CC#N)nn12` (stereo partly drawn) [Compound A31, 2-(7-((2S,5R)-2,5-diethyl-4-(1-(2-methylbenzo[d]thiazol-6-yl)ethyl)piperazin-1-yl)-4-methyl-5-oxo-4,5-dihydropyrazolo[1,5-a]pyrimidin-2-yl)acetonitrile], the IC50 in experiment [1] turned out to be 80 nM; in experiment [2] it was 617 nM.

Consider `CC[C@H]1CN(C(C)c2ccc3nc(C)sc3n2)[C@H](CC)CN1c1c(F)c(=O)n(C)c2cc(CC#N)nn12` (stereo partly drawn) [Compound A36, 2-(7-((2S,5R)-2,5-diethyl-4-(1-(2-methylthiazolo[5,4-b]pyridin-5-yl)ethyl)piperazin-1-yl)-6-fluoro-4-methyl-5-oxo-4,5-dihydropyrazolo[1,5-a]pyrimidin-2-yl)acetonitrile], for which the IC50 in experiment [1] is 629 nM; in experiment [2], 1580 nM.

Consider `CCC(c1ccn2nc(C)cc2n1)N1C[C@H](C)N(c2cc(=O)n(C)c3cc(CC#N)nn23)C[C@H]1CC` (stereo partly drawn) [Compound A43, 2-(7-((2S,5R)-5-ethyl-2-methyl-4-(1-(2-methylpyrazolo [1,5-a]pyrimidin-5-yl)propyl)piperazin-1-yl)-4-methyl-5-oxo-4,5-dihydropyrazolo [1,5-a]pyrimidin-2-yl)acetonitrile], for which the IC50 was 266 nM in experiment [1] and 267 nM in experiment [2].

For the origin of these results see patent US20250353858A1, “CONDENSED HETEROCYCLIC COMPOUNDS AS INHIBITOR OF DIACYLGLYCEROL KINASES” (BEONE MEDICINES I GMBH, priority 2023, published 2025).
